Experimental data from article PMC10319141, “Imidazoquinolines with improved pharmacokinetic properties induce a high IFNα to TNFα ratio in vitro and in vivo” (Frontiers in Immunology, 2023).

What was measured:
[1] = Compound concentrations in organs after activity-adjusted s.c. doses (Figure 5B); format: in vivo, C57BL/6 mice; conditions: 3 µmol/kg s.c., 8 h post compound application; for concentration at 8 h: female, C57BL/6, mouse, sc
Protocol: (§1) All samples were extracted with 3 or 6 volumes acetonitrile containing terbuthylazine as an internal standard (ACN) relative to either sample weight or volume. Liquid samples (plasma, culture medium, cell suspensions in stability experiments) were diluted in either 3 (culture medium, cell suspensions) or 6 (plasma) volumes ACN, pellet and blood samples were extracted by addition of ACN followed by sonication for 5 min. Organ samples were digested with 0.5 µg/mg Proteinase K (Genaxxon) for 1 h at 50°C before being homogenized using a Fastprep FP-24 5G instrument (MP-Biomedicals). Homogenates were diluted with 6 volumes ACN and homogenized again. All extracts were cleared by centrifugation at ~20.000xg for 10 min at 4°C.
(§2) Quantification of analytes was performed on an Agilent 1260/1290 Infinity system fitted with an Agilent C18 Poroshell 120 column (4.6 x 50 mm, 2.7 µm) coupled to a triple quadrupole Sciex API 4000 MS/MS detector. The mobile phase was composed of water containing 0.1% formic acid (eluent A) and acetonitrile containing 0.1% formic acid (eluent B). Gradient used was: 5% B for 0.5 min, to 100% B in 4.5 min, 100% B for 2 min, to 5% B in 0.5 min, 5% for 2.5 min. MS detection parameters are listed in SI Table S1 .
(§3) Formulation. Test compounds were prepared for application in either 1% Tween 80, 9% PEG400 in ultrapure water (Biowest) (i.v., i.p., p.o. application) or 5 mM citric acid in 0.9% saline (Braun) (subcutaneous application). If compounds were administered subcutaneously, injections were carried out into the neck crease.
(§4) Collection of Samples. Mice were bled from the tail vein at various timepoints. Heparin (Sigma) or K2-EDTA (Sigma) was added to blood samples to a final […] concentration of 10-15 Unit or 5 mM. Plasma was generated by centrifugation at 6800xg for 8 min at 4°C and stored at -80°C until analyzed by ELISA or CBA. Animals were sacrificed after the indicated time points by CO2 inhalation. Heart blood and organs for compound quantification by HPLC-MS/MS were collected post mortem and stored at –20°C until extracted as described above.
Compound concentration in (A) peripheral blood collected via tail bleeding before, 15, 30 60, 120, 240, 360 and 480 min after s.c. compound application and (B) organs collected after 8 h was assessed via HPLC-MS/MS. (A, B) Data are presented as mean ± SD. (C) Levels of TNFα and IFNα as well as (D) IL6, CXCL1, CCL2, IFNβ, IFNγ and IL10 in tail plasma over time were determined via cytometric bead array. Area under the curve (AUC) of each cytokine was plotted against compound concentration.

Human peripheral blood = assay: Full blood stimulation assay (TNFα/IFNα by ELISA); format: cell-based; conditions: 6 h, 8 donors, normalized to maximal concentration per donor; in words
Protocol: Human peripheral blood of healthy donors was diluted in an equal volume of culture medium as described in 3.2, blood was treated with test compounds or controls at various concentrations and incubated at 37°C, 5% CO2 for 6 h. Cells were pelleted by centrifugation at 400xg for 5 min and supernatants were collected.
(§5) Cytokine concentrations in samples were quantified either by ELISA (hTNFα, R&D Systems; hIFNα, Mabtech) or cytometric bead arrays (CBA, LegendPlex mouse anti-virus response panel, BioLegend) according to the manufacturer’s instructions. CBAs were acquired on a ZE5 Cell Analyzer (Bio-Rad) and analyzed using the LegendPlex Software Suite (Qognit/BioLegend). Absorbance of ELISA-samples was quantified using a Versamax microplate reader (Molecular Devices).

[2] = Compound concentrations in organs and blood after 3, 6, 12 µmol/kg s.c. (Figure 4A); format: in vivo, C57BL/6 mice; conditions: female, C57BL/6, mouse, sc; for concentration at 8 h: 8 h after treatment; for concentration at 1 h: whole blood (peripheral, tail), 1 h post application, whole blood
Protocol: as §1, §2, §3, §4
(§6) (A) Organs were sampled 8 h after treatment and compound concentration was determined via HPLC-MS/MS. Data are presented as mean ± SD. (B) Cytokine levels in tail plasma over time were determined via cytometric bead array. At each sampling timepoint the plasma of mice in one treatment group was pooled.

[3] = tested on: TNFα and IFNα in peripheral plasma; assay: Cytokine profile in peripheral plasma after equimolar s.c. doses (Figure 4B, Table 2 top); format: in vivo, C57BL/6 mice; conditions: for IFNα AUC / TNFα AUC: 8 h period, equimolar doses (top section), pooled plasma of 3 animals; for IFNα plasma levels over the study period: in words
Protocol: as §5, §3, §4, §6

[4] = Compound concentrations in organs and plasma after three consecutive daily s.c. treatments (Figure 6B, S7); format: in vivo, mice; conditions: for compound plasma level at peak: s.c.; for concentration at 4 h / concentration at 28 h / concentration at 52 h: mouse, liver, sc, read-out: concentration in liver; for concentration at 4 h / concentration at 28 h / concentration at 52 h / levels in brain tissue / concentration in liver: repeated daily s.c. treatment; for levels in brain tissue: in words
Protocol: as §1, §2, §3, §4
Dotted lines indicate the time of repeated compound applications. (A) Cytokine levels in pooled tail plasma of mice from individual treatment groups (n=3 per pool and time point), error bars represent range of two replicate measurements. (B) Peripheral blood was collected from the tail vein before, 15, 30 60, 120, 240, 360 and 480 min after s.c. treatment. Compound concentration in peripheral plasma was analyzed by HPLC-MS/MS, data presented as mean ± SD.
Samples were collected 4 h, 28 h and 52 h after s.c. treatment. Skin samples were sampled
at time points 4 h and 52 h. Compound concentrations were analyzed by HPLC-MS/MS, data

[5] = kidney, read-out: concentration in kidney
[6] = liver, read-out: concentration in liver
[7] = day 1, 60 min after application
[8] = day 2, 60 min after application
[9] = day 3, 60 min after application

Row | Structure (SMILES) | concentration at 8 h [1, 5] | concentration at 8 h [1, 6] | relative IFNα induction in human blood (Human peripheral blood) | concentration at 8 h [2, 5] | concentration at 8 h [2, 6] | concentration at 1 h [2] | IFNα AUC ([3]; 3 µmol/kg s.c.) | TNFα AUC ([3]; 3 µmol/kg s.c.) | IFNα AUC ([3]; 6 µmol/kg s.c.) | TNFα AUC ([3]; 6 µmol/kg s.c.) | IFNα AUC ([3]; 12 µmol/kg s.c.) | TNFα AUC ([3]; 12 µmol/kg s.c.) | time of TNFα plasma peak post treatment ([3]; 3, 6, 12 µmol/kg s.c.) | IFNα plasma levels over the study period ([3]; 3, 6, 12 µmol/kg s.c.) | compound plasma level at peak [4, 7] | compound plasma level at peak [4, 8] | compound plasma level at peak [4, 9] | concentration at 4 h ([4]; after 4 h) | concentration at 28 h ([4]; after 28 h) | levels in brain tissue [4] | other results
1 | CCCCc1nc2c(N)nc3ccccc3c2n1CCC1CCN(C(=O)CN(C)CC(=O)N(C)C2CC(C)OC(OC3C(C)C(OC4CC(C)(OC)C(O)C(C)O4)C(C)C(=O)OC(CC)C(C)(O)C(O)C(C)N(C)CC(C)CC3(C)O)C2O)CC1 (centres unmarked) [A1-mac] | 2.18 µM | 6.03 µM | robust and similar | 5.48 µM | 5.1 µM | 0.696 µM | 420000 pg·min/mL | 6900 pg·min/mL | 920000 pg·min/mL | 24000 pg·min/mL | 3.1e+06 pg·min/mL | 76000 pg·min/mL | 90 min | stayed elevated over the 8 h period | 0.755 µM | 0.585 µM | 0.639 µM | 2.62 µM | 4.46 µM | baseline or close to baseline levels | concentration at 52 h ([4]; after 52 h): 6.35 µM
2 | CCCCc1nc2c(N)nc3ccccc3c2n1CCC1CCNCC1 [A1] | 0.469 µM | 0.045 µM | robust and similar | 0.636 µM | 0.173 µM | 1.56 µM | 660000 pg·min/mL | 6500 pg·min/mL | 1.3e+06 pg·min/mL | 17000 pg·min/mL | 2.5e+06 pg·min/mL | 35000 pg·min/mL | 120 min | stayed elevated over the 8 h period | 0.171 µM | 0.085 µM | 0.066 µM | 0.063 µM | 0.082 µM | baseline or close to baseline levels | concentration at 8 h ([2]; lung, read-out: concentration in lung): 0.868 µM; concentration at 52 h ([4]; after 52 h): 0.094 µM
3 | CCOCc1nc2c(N)nc3ccccc3c2n1CC(C)(C)O [RSQ, Resiquimod, reference compound] |  |  |  |  |  | 0.175 µM | 2.2e+06 pg·min/mL | 330000 pg·min/mL | 780000 pg·min/mL | 280000 pg·min/mL | 800000 pg·min/mL | 260000 pg·min/mL | 90 min |  | < LLOQ | < LLOQ | < LLOQ |  |  | baseline or close to baseline levels | concentration in liver [1]: < LLOQ; TNFα concentrations in supernatants of human blood (Human peripheral blood): highest TNFα concentrations; TNFα plasma AUC, times larger than the area for any A1 or A1-mac treated group ([3]; 3 µmol/kg RSQ s.c.): about 4 times; peak TNFα concentrations, times higher than in A1 or A1-mac groups ([3]; 3, 6, 12 µmol/kg s.c.): over 10 times; time at which TNFα and IFNα plasma levels fall close to baseline ([3]; 3, 6, 12 µmol/kg s.c.): 240 min; time of IFNα plasma peak post treatment ([3]; 3, 6, 12 µmol/kg s.c.): 90 min; time of maximal IFNα plasma levels post application ([3]; abstract, in vivo murine): 1 h; concentration in liver ([4]; after 4 h): < LLOQ; concentration in liver ([4]; after 28 h): < LLOQ; concentration in liver ([4]; after 52 h): < LLOQ
